Experimental data: patent publication US4810699A, “Substituted 1,3,4,9-tetrahydropyrano[3,4,-b]indole-1-acetic acids, pharmaceutical compositions containing them, and methods for treating inflammatory conditions and for analgesic purposes using them” (American Home Products Corporation, priority 1987, dated 1989)

Experiments:
Adjuvant Edema = experiment: Preventative Adjuvant Edema; type: in vivo, Male Sprague Dawley rats; settings: rat; for Preventative Adjuvant Edema, percent inhibition: p.o.; for ED50: po, days 0, 1 and 2
Procedure: This test is a primary screen for anti-inflammatory drugs.
Male Sprague Dawley rats (180-200 g) are used. The animals have free access to water but food is withdrawn 18 hours before testing.
Drug Preparations and Administration:
Freund's complete adjuvant is prepared by suspending 5 mg of killed and dried Mycobacterium butyricum (Difco) in 1 mL mineral oil. The test compound are dissolved, or suspended in 0.5% Tween 80 in distilled water according to their solubility. For primary screening all drugs are administered by gastric lavage at the arbitrary dosage of 25 mg/kg, p.o. in a volume of 0.5 mL/100 g body weight to groups of 10 animals.
The method is essentially that described by Wax et al, J. Pharmacol. Exp. Ther., 192, 166-171 (1975). Groups of rats are injected intradermally in the left hind paw with 0.1 mL of Freund's complete adjuvant. The test compound or vehicle is administered immediately before the adjuvant, 24 hours and 48 hours after the adjuvant (days 0, 1 and 2). The injected hind paw volume is measured before the injection of adjuvant and 24 hrs. after the last drug administration (day 3) by means of a plethysmometer (Buxco Electronics Inc.). The difference between the hind paw volume on day 0 and day 3 represents the edema volume. Etodolac (25 mg/kg, p.o.) is included as a positive control.
The mean edema volume (expressed as mL±SEM) is calculated for each group and the percentage protection conferred by the drug is calculated: [formula] where c is the mean edema volume for the vehicle-treated (0.5% Tween 80 in distilled water) controls and t is the mean edema volume for the drug treated group.

[1] = system: Phenylbenzoquinone-induced Writhing; experiment: Drug Effects on Phenylbenzoquinone-induced Writhing in Mice; type: in vivo, Male Swiss albino mice; settings: mouse, p.o., 60 min before PBQ i.p.; for Phenylquinone Writhing in Mice, percent inhibition: dose 10 mg/kg; for ED50: po, read-out: Phenylquinone Writhing in Mice ED50
Procedure: A further test used to determine the utility of the compounds of the present invention is designated: Drug Effects on Phenylbenzoquinone-induced Writhing in Mice
The objective of this test is to determine the ability of test drugs to inhibit the nociceptive (pain) response of mice injected with a chemical irritant. This test is a primary screen for both peripheral and centrally acting analgesic drugs.
Male Swiss albino mice (15-25 g). The animals are fasted for 18 hours prior to use but have free access to water.
Drug Preparation and Administration:
Drugs are dissolved or suspended according to their solubility in 0.5% Tween 80 in distilled water. They are administered by gastric gavage in a volume of 5 mL/kg. For primary screening all drugs are administered at the arbitrary dosage of 25 mg/kg, p.o. to a group of 10 mice.
A modification of the method of Siegmund et al, Proc. Soc. Exp. Biol. Med., 95, 729-731 (1957) is used. Groups of 5 mice are dosed with the test compound or vehicle control. Sixty minutes later the animals are injected i.p. with 0.3 mL/20 g body weight of a 0.02% solution of phenylbenzoquinone (PBQ; 2-phenyl-1,4-benzoquinone) and placed in individual observation boxes. The number of writhing or abdominal squirming movements made by each mouse during the following 15 min. period is counted. The experiment is repeated with another group of 5 mice and the mean number of writhes per mouse for a group of 10 mice is calculated.
Drug treated and vehicle-treated control groups are compared and the percentage protection conferred by the drug is calculated: [formula] where c=mean number of writhes in the control group
t=mean number of writhes in the test drug group

Row | Structure (SMILES) | Phenylquinone Writhing in Mice, percent inhibition [1] [%] | Preventative Adjuvant Edema, percent inhibition (Adjuvant Edema; dose 25 mg/kg) [%] | further results
1 | CCC1(CC(=O)O)OCCc2c1[nH]c1c(OCC(F)(F)F)c(F)ccc21 (stereo not drawn) [Example 4, 7-fluoro-1-ethyl-1,3,4,9-tetrahydro-8-(2,2,2-trifluoroethoxy)-pyrano[3,4-b]indole-1-acetic acid] | 0 | – | Preventative Adjuvant Edema, percent inhibition (Adjuvant Edema; dose 10 mg/kg): 83%
2 | CCC1(CC(=O)O)OCCc2c1[nH]c1c(OCC(F)(F)F)cccc21 (stereo not drawn) [Example 6, 1-Ethyl-1,3,4,9-tetrahydro-8-(2,2,2-trifluoroethoxy)pyrano[3,4-b]indole-1-acetic Acid] | – | – | ED50 (Adjuvant Edema): 4.3 mg/kg; ED50 [1]: > 200 mg/kg
3 | C=CCOc1cccc2c3c([nH]c12)C(CC)(CC(=O)O)OCC3 (stereo not drawn) [Example 7, 1-ethyl-1,3,4,9-tetrahydro-8-[(2-propenyl)oxy]-pyrano[3,4-b]indole-1-aceticacid] | 18 | 41 | –
4 | CCC1(CC(=O)O)OCCc2c1[nH]c1c(OCC(F)(F)F)ccc(C)c21 (stereo not drawn) [Example 1, 1-Ethyl-1,3,4,9-tetrahydro-5-methyl-8-(2,2,2-trifluoroethoxy)pyrano[3,4-b]indole-1-acetic Acid] | 34 | – | ED50 (Adjuvant Edema): 16.4 mg/kg
5 | CCC1(CC(=O)O)OCCc2c1[nH]c1c(OCC(F)(F)F)c(Cl)ccc21 (stereo not drawn) [Example 2, 7-Chloro-1-ethyl-1,3,4,9-tetrahydro-8-(2,2,2-trifluoroethoxy)pyrano[3,4-b]indole-1-acetic Acid] | – | – | Preventative Adjuvant Edema, percent inhibition (Adjuvant Edema; dose 3 mg/kg): 50%; ED50 [1]: 77 mg/kg
6 | CCC1(CC(=O)O)OCCc2c1[nH]c1c(OC(C)C(F)(F)F)c(Cl)ccc21 (stereo not drawn) [Example 5, 7-chloro-1-ethyl-1,3,4,9-tetrahydro-8-(1-methyl-2,2,2-trifluoroethoxy)-pyrano[3,4-b]indole-1-acetic acid] | 31 | 41 | –
7 | C#CCOc1cccc2c3c([nH]c12)C(CC)(CC(=O)O)OCC3 (stereo not drawn) [Example 8, 1-Ethyl-1,3,4,9-tetrahydro-8-[(2-propynyl)oxy]-pyrano[3,4-b]indole-1-aceticAcid] | – | 34 | –
8 | CCC1(CC(=O)O)OCCc2c1[nH]c1c(OCC(F)(F)F)ccc(F)c21 (stereo not drawn) [Example 3, 1-ethyl-5-fluoro-1,3,4,9-tetrahydro-8-(2,2,2-trifluoroethoxy)-pyrano[3,4-b]indole-1-acetic acid] | 18 | 70 | –
